Data taken from patent US12077503B2, “Substituted cyclic amides and their use as herbicides” (FMC CORPORATION, priority 2015, dated 2024).

Columns and labels:
Assay type in all cases: in vivo
[1] = system: barnyardgrass (Echinochloa crus-galli); test: Test G Pre-Emergence Protocol; conditions: Echinochloa crus-galli, pre-emergence, 312 h, evaluated after 13 days; for pest or weed control at 15.625 g/ha: 15.625 g ai/ha, read-out: Barnyard grass damage rating (100=total damage to plant; 0=no damage to plant); for pest or weed control at 62.5 g/ha: 62.5 g ai/ha, 100=total damage to plant, 0=no damage to plant, read-out: plant damage rating, Barnyardgrass; for pest or weed control at 250 g/ha: 250 g ai/ha, read-out: Barnyardgrass damage rating (100=total damage to plant; 0=no damage to plant)
How it was run: (§1)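 Seeds were sown in standard soil and kept one day in a glasshouse (24/16° C day/night, 14 h light, 65% humidity), then sprayed with compound in acetone/water (50:50) containing 0.5% Tween 20 at 15.625, 62.5 or 250 g/ha. Damage was scored after 13 days (0 = none, 100 = total).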

corn (Zea mays) [2] = test: Test G Pre-Emergence Protocol; conditions: Zea mays, pre-emergence, 312 h, evaluated after 13 days; for plant injury at 15.625 g/ha: 15.625 g ai/ha; for plant injury at 15.625 g/ha / plant injury at 250 g/ha: read-out: Corn damage rating (100=total damage to plant; 0=no damage to plant); for plant injury at 62.5 g/ha: 62.5 g ai/ha, 100=total damage to plant, 0=no damage to plant, read-out: plant damage rating, Corn; for plant injury at 250 g/ha: 250 g ai/ha
How it was run: as §1

[3] = system: giant foxtail (Setaria faberi); test: Test G Pre-Emergence Protocol; conditions: Setaria faberi, pre-emergence, 312 h, evaluated after 13 days; for pest or weed control at 15.625 g/ha: 15.625 g ai/ha; for pest or weed control at 15.625 g/ha / pest or weed control at 250 g/ha: read-out: Foxtail, Giant damage rating (100=total damage to plant; 0=no damage to plant); for pest or weed control at 62.5 g/ha: 62.5 g ai/ha, 100=total damage to plant, 0=no damage to plant, read-out: plant damage rating, Foxtail, Giant; for pest or weed control at 250 g/ha: 250 g ai/ha
How it was run: as §1

[4] = system: ivy-leaved morning glory (Ipomoea hederacea); test: Test G Pre-Emergence Protocol; conditions: Ipomoea, pre-emergence, 312 h, evaluated after 13 days; for pest or weed control at 15.625 g/ha: 15.625 g ai/ha, read-out: Morning-glory, Ivy-leaved damage rating (100=total damage to plant; 0=no damage to plant); for pest or weed control at 62.5 g/ha: 62.5 g ai/ha, 100=total damage to plant, 0=no damage to plant, read-out: plant damage rating, Morningglory, Ivy-leaved; for pest or weed control at 250 g/ha: 250 g ai/ha, read-out: Morningglory, Ivy-leaved damage rating (100=total damage to plant; 0=no damage to plant)
How it was run: as §1

[5] = system: redroot pigweed (Amaranthus retroflexus); test: Test G Pre-Emergence Protocol; conditions: Amaranthus retroflexus, pre-emergence, 312 h, evaluated after 13 days; for pest or weed control at 15.625 g/ha: 15.625 g ai/ha; for pest or weed control at 15.625 g/ha / pest or weed control at 250 g/ha: read-out: Pigweed, Redroot damage rating (100=total damage to plant; 0=no damage to plant); for pest or weed control at 62.5 g/ha: 62.5 g ai/ha, 100=total damage to plant, 0=no damage to plant, read-out: plant damage rating, Pigweed, Redroot; for pest or weed control at 250 g/ha: 250 g ai/ha
How it was run: as §1

[6] = system: velvetleaf (Abutilon theophrasti); test: Test G Pre-Emergence Protocol; conditions: Abutilon theophrasti, pre-emergence, 312 h, evaluated after 13 days; for pest or weed control at 15.625 g/ha: 15.625 g ai/ha; for pest or weed control at 15.625 g/ha / pest or weed control at 250 g/ha: read-out: Velvetleaf damage rating (100=total damage to plant; 0=no damage to plant); for pest or weed control at 62.5 g/ha: 62.5 g ai/ha, 100=total damage to plant, 0=no damage to plant, read-out: plant damage rating, Velvetleaf; for pest or weed control at 250 g/ha: 250 g ai/ha
How it was run: as §1

[7] = system: barnyardgrass (Echinochloa crus-galli); test: Test G Post-Emergence Protocol; conditions: Echinochloa crus-galli, post-emergence, 312 h; for pest or weed control at 15.625 g/ha: 15.625 g ai/ha, evaluated after 13 days (100=total damage to plant; 0=no damage to plant), read-out: Barnyardgrass damage rating; for pest or weed control at 62.5 g/ha: 62.5 g ai/ha, read-out: Barnyardgrass damage rating (100=total damage to plant; 0=no damage to plant); for pest or weed control at 62.5 g/ha / pest or weed control at 250 g/ha: evaluated after 13 days; for pest or weed control at 250 g/ha: 250 g ai/ha, read-out: damage to plant, Barnyardgrass (100=total damage to plant; 0=no damage to plant)
How it was run: (§2)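 A glasshouse post-emergence test: 8-day-old plants sprayed at 15.625, 62.5 or 250 g/ha, then grown at 24/16 °C day/night with 14 h light and 65% humidity. Damage rated 13 days later, 0–100.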

corn (Zea mays) [8] = test: Test G Post-Emergence Protocol; conditions: Zea mays, post-emergence, 312 h; for plant injury at 15.625 g/ha: 15.625 g ai/ha, evaluated after 13 days (100=total damage to plant; 0=no damage to plant), read-out: Corn damage rating; for plant injury at 62.5 g/ha: 62.5 g ai/ha, read-out: Corn damage rating (100=total damage to plant; 0=no damage to plant); for plant injury at 62.5 g/ha / plant injury at 250 g/ha: evaluated after 13 days; for plant injury at 250 g/ha: 250 g ai/ha, read-out: damage to plant, Corn (100=total damage to plant; 0=no damage to plant)
How it was run: as §2

[9] = system: giant foxtail (Setaria faberi); test: Test G Post-Emergence Protocol; conditions: Setaria faberi, post-emergence, 312 h; for pest or weed control at 15.625 g/ha: 15.625 g ai/ha, evaluated after 13 days (100=total damage to plant; 0=no damage to plant), read-out: Foxtail, Giant damage rating; for pest or weed control at 62.5 g/ha: 62.5 g ai/ha, read-out: Foxtail, Giant damage rating (100=total damage to plant; 0=no damage to plant); for pest or weed control at 62.5 g/ha / pest or weed control at 250 g/ha: evaluated after 13 days; for pest or weed control at 250 g/ha: 250 g ai/ha, read-out: damage to plant, Foxtail, Giant (100=total damage to plant; 0=no damage to plant)
How it was run: as §2

[10] = system: ivy-leaved morning glory (Ipomoea hederacea); test: Test G Post-Emergence Protocol; conditions: Ipomoea, post-emergence, 312 h; for pest or weed control at 15.625 g/ha: 15.625 g ai/ha, evaluated after 13 days (100=total damage to plant; 0=no damage to plant), read-out: Morningglory, Ivy-leaved damage rating; for pest or weed control at 62.5 g/ha: 62.5 g ai/ha, read-out: Morningglory, Ivy-leaved damage rating (100=total damage to plant; 0=no damage to plant); for pest or weed control at 62.5 g/ha / pest or weed control at 250 g/ha: evaluated after 13 days; for pest or weed control at 250 g/ha: 250 g ai/ha, read-out: damage to plant, Morningglory, Ivy-leaved (100=total damage to plant; 0=no damage to plant)
How it was run: as §2

[11] = system: redroot pigweed (Amaranthus retroflexus); test: Test G Post-Emergence Protocol; conditions: Amaranthus retroflexus, post-emergence, 312 h; for pest or weed control at 15.625 g/ha: 15.625 g ai/ha, evaluated after 13 days (100=total damage to plant; 0=no damage to plant), read-out: Pigweed, Redroot damage rating; for pest or weed control at 62.5 g/ha: 62.5 g ai/ha, read-out: Pigweed, Redroot damage rating (100=total damage to plant; 0=no damage to plant); for pest or weed control at 62.5 g/ha / pest or weed control at 250 g/ha: evaluated after 13 days; for pest or weed control at 250 g/ha: 250 g ai/ha, read-out: damage to plant, Pigweed, Redroot (100=total damage to plant; 0=no damage to plant)
How it was run: as §2

[12] = system: velvetleaf (Abutilon theophrasti); test: Test G Post-Emergence Protocol; conditions: Abutilon theophrasti, post-emergence, 312 h; for pest or weed control at 15.625 g/ha: 15.625 g ai/ha, evaluated after 13 days (100=total damage to plant; 0=no damage to plant), read-out: Velvetleaf damage rating; for pest or weed control at 62.5 g/ha: 62.5 g ai/ha, read-out: Velvetleaf damage rating (100=total damage to plant; 0=no damage to plant); for pest or weed control at 62.5 g/ha / pest or weed control at 250 g/ha: evaluated after 13 days; for pest or weed control at 250 g/ha: 250 g ai/ha, read-out: damage to plant, Velvetleaf (100=total damage to plant; 0=no damage to plant)
How it was run: as §2

SMILES | pest or weed control at 15.625 g/ha [1] [%] | pest or weed control at 62.5 g/ha [1] [%] | pest or weed control at 250 g/ha [1] [%] | plant injury at 15.625 g/ha (corn (Zea mays) [2]) [%] | plant injury at 62.5 g/ha (corn (Zea mays) [2]) [%] | plant injury at 250 g/ha (corn (Zea mays) [2]) [%] | pest or weed control at 15.625 g/ha [3] [%] | pest or weed control at 62.5 g/ha [3] [%] | pest or weed control at 250 g/ha [3] [%] | pest or weed control at 15.625 g/ha [4] [%] | pest or weed control at 62.5 g/ha [4] [%] | pest or weed control at 250 g/ha [4] [%] | pest or weed control at 15.625 g/ha [5] [%] | pest or weed control at 62.5 g/ha [5] [%] | pest or weed control at 250 g/ha [5] [%] | pest or weed control at 15.625 g/ha [6] [%] | pest or weed control at 62.5 g/ha [6] [%] | pest or weed control at 250 g/ha [6] [%] | pest or weed control at 15.625 g/ha [7] [%] | pest or weed control at 62.5 g/ha [7] [%] | other results
CN1C[C@@H](c2ccc(C(F)(F)F)cc2)[C@H](C(=O)Nc2cnn(C)n2)C1=O (racemic) [Compound 1531] | 0 | 0 | 0 | 0 | 0 | 0 | 0 | 0 | 0 | 0 | 0 | 0 | 0 | 0 | 0 | 0 | 0 | 0 | 0 | 0 | pest or weed control at 250 g/ha [7]: 0%; plant injury at 15.625 g/ha (corn (Zea mays) [8]): 0%; plant injury at 62.5 g/ha (corn (Zea mays) [8]): 0%; plant injury at 250 g/ha (corn (Zea mays) [8]): 10%; pest or weed control at 15.625 g/ha [9]: 0%; pest or weed control at 62.5 g/ha [9]: 0%; pest or weed control at 250 g/ha [9]: 0%; pest or weed control at 15.625 g/ha [10]: 0%; pest or weed control at 62.5 g/ha [10]: 0%; pest or weed control at 250 g/ha [10]: 0%; pest or weed control at 15.625 g/ha [11]: 0%; pest or weed control at 62.5 g/ha [11]: 0%; pest or weed control at 250 g/ha [11]: 0%; pest or weed control at 15.625 g/ha [12]: 0%; pest or weed control at 62.5 g/ha [12]: 0%; pest or weed control at 250 g/ha [12]: 0%
C=CCc1c(Cl)cccc1NC(=O)[C@H]1C(=O)N(C)C[C@@H]1c1ccc(C(F)(F)F)cc1 (racemic) [Compound 1440] | 0 | 10 | 40 | 0 | 0 | 0 | 0 | 50 | 80 | 0 | 0 | 0 | 0 | 0 | 0 | 0 | 0 | 0 | 0 | 0 | pest or weed control at 250 g/ha [7]: 10%; plant injury at 15.625 g/ha (corn (Zea mays) [8]): 0%; plant injury at 62.5 g/ha (corn (Zea mays) [8]): 10%; plant injury at 250 g/ha (corn (Zea mays) [8]): 20%; pest or weed control at 15.625 g/ha [9]: 0%; pest or weed control at 62.5 g/ha [9]: 20%; pest or weed control at 250 g/ha [9]: 60%; pest or weed control at 15.625 g/ha [10]: 0%; pest or weed control at 62.5 g/ha [10]: 0%; pest or weed control at 250 g/ha [10]: 10%; pest or weed control at 15.625 g/ha [11]: 0%; pest or weed control at 62.5 g/ha [11]: 10%; pest or weed control at 250 g/ha [11]: 20%; pest or weed control at 15.625 g/ha [12]: 0%; pest or weed control at 62.5 g/ha [12]: 0%; pest or weed control at 250 g/ha [12]: 0%
